# Measured values published in ChEMBL document CHEMBL3425489, “X-ray crystal structures of Escherichia coli RNA polymerase with switch region binding inhibitors enable rational design of squaramides with an improved fraction unbound to human plasma protein” (J Med Chem, 2015).
# Tests used:
# [1] = Inhibition of Escherichia coli switch region of RNA polymerase after 1 hr by transcription-coupled translation assay
# Plasma = test: (§1) Fraction unbound (%) in human plasma at 10 uM by LC/MS-MS analysis; format: ADME, cell-free; conditions: 10 µM
# [2] = Equilibrium solubility of the compound in phosphate buffer by LC-MS analysis
# [3] = octanol/water, pH 7.4
# Description: (§2) Partition coefficient, log D of the compound at pH 7.4 by shake flask method
# Haemophilus influenzae = test: Antibacterial activity against Haemophilus influenzae acrB by broth microdilution method; format: functional
# [4] = as §1; format: ADME, cell-free
# physchem = conditions: octanol/water, pH 7.4
# Description: as §2
fraction unbound at 10 µM [4],logD (physchem),Compound,IC50 [1] [nM],Fu (Plasma) [%],solubility thermodynamic [2] [µM],logD [3],MIC (Haemophilus influenzae) [µM]
–,–,Cc1noc(C)c1S(=O)(=O)Nc1c(N2CCC(C)CC2)c(=O)c1=O,> 100000,1.6,773,-1,–
–,–,Cc1noc(C)c1S(=O)(=O)Nc1c(N2CCC(c3ccccc3)CC2)c(=O)c1=O,26000,< 1,763,-0.6,–
–,–,COc1ccc(CN2CCN(c3c(NS(=O)(=O)c4c(C)noc4C)c(=O)c3=O)CC2)cc1,3000,1.8,497,-0.9,> 200
–,–,Cc1nn(C(F)F)cc1S(=O)(=O)Nc1c(N2CCC(Cc3ccccc3)CC2)c(=O)c1=O,7900,< 1,> 1000,-0.1,100
–,–,Cc1noc(C)c1S(=O)(=O)Nc1c(N2CCC(N(C)Cc3ccc(Cl)cc3)CC2)c(=O)c1=O,330,3.8,> 1000,0.5,50
–,–,Cc1ccc(CC2CCN(c3c(NS(=O)(=O)c4c(C)noc4C)c(=O)c3=O)CC2)cc1,290,< 1,> 1000,0.5,12.5
–,–,Cc1noc(C)c1S(=O)(=O)Nc1c(N2CCC(N(C)Cc3ccc(OC(F)F)cc3)CC2)c(=O)c1=O,430,–,–,–,50
–,–,Cc1noc(C)c1S(=O)(=O)Nc1c(N2CCN(CCc3ccccc3)CC2)c(=O)c1=O,43000,4.9,560,-0.4,–
–,–,CCCC/C(C)=C/C=C(\C)C(=O)c1c(O)cc(C(C)CC/C=C/NC(=O)OC)oc1=O (racemic),1000,< 1,679,-0.3,–
–,–,Cc1noc(C)c1S(=O)(=O)Nc1c(N2CCN(Cc3ccc(C#N)cc3)CC2)c(=O)c1=O,1500,2.9,> 1000,-1.3,200
< 0.01,0.1,Cc1noc(C)c1S(=O)(=O)Nc1c(N2CCC(Cc3ccccc3)CC2)c(=O)c1=O,280,–,> 1000,–,200
–,–,O=c1c(NS(=O)(=O)c2ccccc2)c(N2CCC(Cc3ccccc3)CC2)c1=O,2100,< 1,> 1000,0.2,200
–,–,CC(=O)NC[C@H]1CN(c2ccc(N3CCOCC3)c(F)c2)C(=O)O1 [LINEZOLID],–,–,–,–,12.5
–,–,Cc1noc(C)c1S(=O)(=O)Nc1c(N2CCC(NCc3ccc(F)cc3)CC2)c(=O)c1=O,2700,26,52,0,> 200
–,–,Cc1noc(C)c1S(=O)(=O)Nc1c(N2CCCC(Cc3ccccc3)C2)c(=O)c1=O (centres undefined),71000,< 1,985,-0.3,–
–,–,Cc1noc(C)c1S(=O)(=O)Nc1c(N2CCC(NCc3ccc(C(F)(F)F)cc3)CC2)c(=O)c1=O,290,6.6,> 1000,0.8,25
–,–,Cc1noc(C)c1S(=O)(=O)Nc1c(N2CCC(N(C)CC3CCCCC3)CC2)c(=O)c1=O,> 100000,38,12.2,-0.4,–
–,–,CO[C@H]1/C=C/O[C@@]2(C)Oc3c(C)c(O)c4c(O)c(c(/C=N/N5CCN(C)CC5)c(O)c4c3C2=O)NC(=O)/C(C)=C\C=C\[C@H](C)[C@H](O)[C@@H](C)[C@@H](O)[C@@H](C)[C@H](OC(C)=O)[C@@H]1C [RIFAMPIN],–,16.5,751,1.3,0.025
–,–,Cc1noc(C)c1C(=O)Nc1c(N2CCC(Cc3ccccc3)CC2)c(=O)c1=O,> 100000,< 1,508,1.7,–
–,–,Cc1noc(C)c1S(=O)(=O)Nc1c(N2CCC(CCc3ccccc3)CC2)c(=O)c1=O,320,< 1,636,0,–
